This note sets out measurements from ChEMBL document CHEMBL4152334, “Synthesis, molecular docking and biological evaluation of novel phthaloyl derivatives of 3-amino-3-aryl propionic acids as inhibitors of Trypanosoma cruzi trans-sialidase” (2018).

What all share (type): functional
Experiment [1] has as its system Trypanosoma cruzi. Put plainly: Trypanocidal activity against trypomastigote stage of Trypanosoma cruzi INC-5 infected in NIH mouse blood assessed as parasite lysis at 10 ug/ml after 24 hrs by optical microscopic method relative to control.
Experiment [2] relates to Trypanosoma cruzi. Nature of the experiment: Trypanocidal activity against trypomastigote stage of Trypanosoma cruzi NINOA infected in NIH mouse blood assessed as […] parasite lysis after 24 hrs by optical microscopic method.
The test system of experiment [3] is Trypanosoma cruzi. Put plainly: Trypanocidal activity against trypomastigote stage of Trypanosoma cruzi NINOA infected in NIH mouse blood assessed as parasite lysis at 10 ug/ml after 24 hrs by optical microscopic method relative to control.
Experiment [4] concerns Trypanosoma cruzi. Nature of the experiment: Trypanocidal activity against trypomastigote stage of Trypanosoma cruzi INC-5 infected in NIH mouse blood assessed as parasite lysis after 24 hrs by optical microscopic method. Conditions: INC-5, Blood.

As a reminder, the LC50 is the concentration lethal to half of the exposed cells or organisms. Consider `CCc1ccc(C(N)CC(=O)O)cc1` (stereo unspecified), for which the Activity with Trypanosoma cruzi [1] amounted to 50%; with Trypanosoma cruzi [3] it was 65%. For the same compound, the values for the LC50 in the experiment on Trypanosoma cruzi [2] and in the experiment with Trypanosoma cruzi [4] were 113 µM and 264 µM, respectively.
For the compound `O=C(Cn1ccnc1[N+](=O)[O-])NCc1ccccc1` [BENZNIDAZOLE], the Activity in the experiment with Trypanosoma cruzi [1] came out at 56%; with Trypanosoma cruzi [3], 46.3%. Moreover, the figures for the LC50 with Trypanosoma cruzi [2] and in the experiment on Trypanosoma cruzi [4] were 130 µM and 124 µM, respectively.
Take `CCc1ccc(C(CC(=O)O)N2C(=O)c3ccc(C(=O)O)cc3C2=O)cc1` (stereo unspecified): the values for the Activity in the experiment with Trypanosoma cruzi [1] and in the experiment on Trypanosoma cruzi [3] were 61% and 23%, respectively.
For `O=C(O)CC(c1ccc(Cl)cc1)N1C(=O)c2ccccc2C1=O` (stereo unspecified) the same measures were 70% and 36%.
For the compound `O=C(O)CC(c1cccs1)N1C(=O)c2ccccc2C1=O` (stereo unspecified), the Activity in the experiment on Trypanosoma cruzi [1] stood at 25%; in the experiment on Trypanosoma cruzi [3], 22%.
As for `O=C(O)CC(c1cccs1)N1C(=O)c2ccc(C(=O)O)cc2C1=O` (stereo unspecified), the Activity with Trypanosoma cruzi [1] is recorded as 19%; with Trypanosoma cruzi [3], 67%.
In the case of `Cc1ccc2c(c1)C(=O)N(C(CC(=O)O)c1ccc(Br)cc1)C2=O` (stereo unspecified), the Activity in the experiment with Trypanosoma cruzi [1] is 50%; with Trypanosoma cruzi [3], 65%. Besides, the LC50 in the experiment on Trypanosoma cruzi [2] was determined as 24.6 µM; in the experiment on Trypanosoma cruzi [4], 23 µM.
For `O=C(O)CC(c1ccc2c(c1)OCCO2)N1C(=O)c2ccc(C(=O)O)cc2C1=O` (stereo unspecified), the Activity was 47% in the experiment on Trypanosoma cruzi [1] and 33% in the experiment with Trypanosoma cruzi [3].
In the case of `NC(CC(=O)O)c1ccc(Br)cc1` (stereo unspecified), the Activity is 18% with Trypanosoma cruzi [1] and 20% in the experiment with Trypanosoma cruzi [3].
For `CCc1ccc(C(CC(=O)O)N2C(=O)c3ccc(C)cc3C2=O)cc1` (stereo unspecified) the same measures were 59% and 65%.
For `Cc1ccc(C(CC(=O)O)N2C(=O)c3ccccc3C2=O)cc1` (stereo unspecified), in that order: 22% and 23%.
For `O=C(O)CC(c1cc2c(cc1[N+](=O)[O-])OCCO2)N1C(=O)c2ccccc2C1=O` (stereo unspecified), in that order: 13% and 54%.
Regarding `Cc1ccc2c(c1)C(=O)N(C(CC(=O)O)c1ccc([N+](=O)[O-])cc1)C2=O` (stereo unspecified), the Activity with Trypanosoma cruzi [1] was 25%; with Trypanosoma cruzi [3], 45%.
In the case of `CC1CS(=O)(=O)CCN1/N=C/c1ccc([N+](=O)[O-])o1` (stereo unspecified) [NIFURTIMOX], the results for the Activity with Trypanosoma cruzi [1] and in the experiment with Trypanosoma cruzi [3] were 50% and 40.74%, respectively.
Turning to `O=C(O)CC(c1ccc(-c2ccccc2)cc1)N1C(=O)c2ccc(C(=O)O)cc2C1=O` (stereo unspecified), the Activity with Trypanosoma cruzi [1] is 57%; in the experiment with Trypanosoma cruzi [3], 17%.
`Cc1ccc2c(c1)C(=O)N(C(CC(=O)O)c1ccc(Cl)cc1)C2=O` (stereo unspecified): the Activity was 51% with Trypanosoma cruzi [1] and 52% in the experiment with Trypanosoma cruzi [3]. For the same compound, the LC50 in the experiment with Trypanosoma cruzi [2] turned out to be 37.7 µM; with Trypanosoma cruzi [4] it was 52 µM.
`O=C(O)CC(c1ccc(Br)cc1)N1C(=O)c2ccccc2C1=O` (stereo unspecified): the Activity was determined as 15% in the experiment with Trypanosoma cruzi [1] and 8% with Trypanosoma cruzi [3].
`O=C(O)CC(c1ccc(Br)cc1)N1C(=O)c2ccc(C(=O)O)cc2C1=O` (stereo unspecified): the results for the Activity with Trypanosoma cruzi [1] and in the experiment on Trypanosoma cruzi [3] were 56% and 23%, respectively.
As for `O=C(O)CC(c1ccc(F)cc1)N1C(=O)c2ccccc2C1=O` (stereo unspecified), the Activity is 52% in the experiment with Trypanosoma cruzi [1] and 63% with Trypanosoma cruzi [3]. In addition, the LC50 with Trypanosoma cruzi [2] is 90.8 µM; in the experiment with Trypanosoma cruzi [4], 81.4 µM.
For the compound `Cc1ccc2c(c1)C(=O)N(C(CC(=O)O)c1ccc(-c3ccccc3)cc1)C2=O` (stereo unspecified), the Activity with Trypanosoma cruzi [1] and in the experiment with Trypanosoma cruzi [3] was 25% throughout.
As for `Cc1ccc2c(c1)C(=O)N(C(CC(=O)O)c1ccccc1[N+](=O)[O-])C2=O` (stereo unspecified), the Activity in the experiment on Trypanosoma cruzi [1] is given as 65%; with Trypanosoma cruzi [3], 22%.
In the case of `O=C(O)CC(c1ccc([N+](=O)[O-])cc1)N1C(=O)c2ccccc2C1=O` (stereo unspecified), the Activity in the experiment with Trypanosoma cruzi [1] is on record as 80%; in the experiment with Trypanosoma cruzi [3], 62%. Besides, the LC50 with Trypanosoma cruzi [2] is 53.5 µM; in the experiment on Trypanosoma cruzi [4], 119 µM.
On to `Cc1ccc2c(c1)C(=O)N(C(CC(=O)O)c1cccs1)C2=O` (stereo unspecified), for which the figures for the Activity with Trypanosoma cruzi [1] and in the experiment with Trypanosoma cruzi [3] were 48% and 47%, respectively.
For `O=C(O)CC(c1ccc([N+](=O)[O-])cc1)N1C(=O)c2ccc(C(=O)O)cc2C1=O` (stereo unspecified), in that order: 63% and 23%.
For `O=C(O)CC(c1ccc2c(c1)OCCO2)N1C(=O)c2ccccc2C1=O` (stereo unspecified), in that order: 41% and 24%.
For `NC(CC(=O)O)c1ccc(Cl)cc1` (stereo unspecified), in that order: 73% and 13%.
Regarding `O=C(O)CC(c1ccccc1[N+](=O)[O-])N1C(=O)c2ccc(C(=O)O)cc2C1=O` (stereo unspecified), the Activity with Trypanosoma cruzi [1] is 68%; in the experiment on Trypanosoma cruzi [3], 48%.
With `Cc1ccc(C(CC(=O)O)N2C(=O)c3ccc(C)cc3C2=O)cc1` (stereo unspecified), the Activity was determined as 67% in the experiment with Trypanosoma cruzi [1] and 73% with Trypanosoma cruzi [3]. Also, the LC50 in the experiment on Trypanosoma cruzi [2] worked out at 85.6 µM; with Trypanosoma cruzi [4], 43.6 µM.
Take `NC(CC(=O)O)c1ccc(-c2ccccc2)cc1` (stereo unspecified): the Activity in the experiment with Trypanosoma cruzi [1] is 37%; with Trypanosoma cruzi [3], 32%.
For `Cc1ccc2c(c1)C(=O)N(C(CC(=O)O)c1ccc3c(c1)OCCO3)C2=O` (stereo unspecified), in that order: 40% and 47%.
For `O=C(O)CC(c1ccc(Cl)cc1)N1C(=O)c2ccc(C(=O)O)cc2C1=O` (stereo unspecified), in that order: 69% and 3%.
On to `COc1ccc(C(CC(=O)O)N2C(=O)c3ccccc3C2=O)cc1` (stereo unspecified), for which the Activity with Trypanosoma cruzi [1] was 9%; in the experiment with Trypanosoma cruzi [3], 24%.
For `NC(CC(=O)O)c1cccs1` (stereo unspecified) the same measures were 32% and 8%.
As to `Cc1ccc(C(CC(=O)O)N2C(=O)c3ccc(C(=O)O)cc3C2=O)cc1` (stereo unspecified), the Activity is 55% in the experiment with Trypanosoma cruzi [1] and 85% with Trypanosoma cruzi [3]. Moreover, the LC50 with Trypanosoma cruzi [2] amounted to 110 µM; with Trypanosoma cruzi [4], 39.9 µM.
In the case of `NC(CC(=O)O)c1ccc2c(c1)OCCO2` (stereo unspecified), the figures for the Activity with Trypanosoma cruzi [1] and in the experiment on Trypanosoma cruzi [3] were 52% and 37%, respectively.
As to `NC(CC(=O)O)c1cc2c(cc1[N+](=O)[O-])OCCO2` (stereo unspecified), the Activity in the experiment with Trypanosoma cruzi [1] was determined as 15%; in the experiment with Trypanosoma cruzi [3], 7%.
For `CCc1ccc(C(CC(=O)O)N2C(=O)c3ccccc3C2=O)cc1` (stereo unspecified) the same measures were 8% and 22%.
For `O=C(O)CC(c1ccc(-c2ccccc2)cc1)N1C(=O)c2ccccc2C1=O` (stereo unspecified), in that order: 22% and 31%.
For `Cc1ccc2c(c1)C(=O)N(C(CC(=O)O)c1ccc(F)cc1)C2=O` (stereo unspecified), the Activity was found to be 56% in the experiment with Trypanosoma cruzi [1] and 63% in the experiment on Trypanosoma cruzi [3]. For the same compound, the LC50 with Trypanosoma cruzi [2] turned out to be 45.2 µM; in the experiment with Trypanosoma cruzi [4], 74.6 µM.
On to `NC(CC(=O)O)c1ccc(F)cc1` (stereo unspecified), for which the Activity in the experiment on Trypanosoma cruzi [1] is 62%; with Trypanosoma cruzi [3], 35%.
For `O=C(O)CC(c1ccccc1[N+](=O)[O-])N1C(=O)c2ccccc2C1=O` (stereo unspecified) the same measures were 68% and 56%.
For `O=C(O)CC(c1cc2c(cc1[N+](=O)[O-])OCCO2)N1C(=O)c2ccc(C(=O)O)cc2C1=O` (stereo unspecified) the same measures were 59% and 40%.
On to `NC(CC(=O)O)c1ccc([N+](=O)[O-])cc1` (stereo unspecified), for which the Activity amounted to 68% with Trypanosoma cruzi [1] and 50% with Trypanosoma cruzi [3]. For the same compound, the results for the LC50 with Trypanosoma cruzi [2] and in the experiment with Trypanosoma cruzi [4] were 125 µM and 249 µM, respectively.
`COc1ccc(C(CC(=O)O)N2C(=O)c3ccc(C)cc3C2=O)cc1` (stereo unspecified): the Activity with Trypanosoma cruzi [1] worked out at 57%; in the experiment on Trypanosoma cruzi [3], 78%. The values for the LC50 in the experiment with Trypanosoma cruzi [2] and with Trypanosoma cruzi [4] were 65.6 µM and 59.5 µM, respectively.
For `NC(CC(=O)O)c1ccccc1[N+](=O)[O-]` (stereo unspecified), the Activity in the experiment on Trypanosoma cruzi [1] turned out to be 63%; with Trypanosoma cruzi [3], 23%.
In the case of `O=C(O)CC(c1ccc(F)cc1)N1C(=O)c2ccc(C(=O)O)cc2C1=O` (stereo unspecified), the Activity was found to be 67% with Trypanosoma cruzi [1] and 10% in the experiment with Trypanosoma cruzi [3].
Turning to `COc1ccc(C(N)CC(=O)O)cc1` (stereo unspecified), the Activity in the experiment with Trypanosoma cruzi [1] was determined as 54%; in the experiment on Trypanosoma cruzi [3], 83%. The LC50 with Trypanosoma cruzi [2] amounted to 102 µM; in the experiment on Trypanosoma cruzi [4], 256 µM.
As for `COc1ccc(C(CC(=O)O)N2C(=O)c3ccc(C(=O)O)cc3C2=O)cc1` (stereo unspecified), the Activity is 32% in the experiment with Trypanosoma cruzi [1] and 72% in the experiment on Trypanosoma cruzi [3].
For `Cc1ccc2c(c1)C(=O)N(C(CC(=O)O)c1cc3c(cc1[N+](=O)[O-])OCCO3)C2=O` (stereo unspecified) the same measures were 63% and 47%.
As for `Cc1ccc(C(N)CC(=O)O)cc1` (stereo unspecified), the Activity amounted to 59% in the experiment with Trypanosoma cruzi [1] and 78% with Trypanosoma cruzi [3]. Besides, the LC50 is 184 µM in the experiment with Trypanosoma cruzi [2] and 290 µM in the experiment on Trypanosoma cruzi [4].
